Measured values as given in PubChem BioAssay AID2060603 (Molecular Pharmacology Branch, DTP, NCI, 2025).
pIC50: −log10 of the molar value.

Test system: 422866-222-R5-J1-PDC spheroid viability
Experiment: Anticancer human tumor 422866-222-R5-J1-PDC patient-derived pancreatic adenocarcinoma cell line growth inhibition [CLK]
Conditions: spheroids with HUVEC and MSC; for pIC50: curve of first compound; for viability, T/C: stronger effect = lower value
Summary of the method: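 Patient-derived tumor cells grown as complex spheroids with HUVEC endothelial cells and mesenchymal stem cells, treated with drug combinations. Concentrations descend in half-log steps from near clinical Cmax, or from 10 microM if Cmax unknown.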

[1] = second compound 0.0316 µM, first compound 0.0316 µM
[2] = second compound 0.0316 µM, first compound 0.1 µM
[3] = second compound 0.1 µM, first compound 0.0316 µM
[4] = second compound 0.1 µM, first compound 0.1 µM
[5] = second compound 0.316 µM, first compound 0.0316 µM
[6] = second compound 0.316 µM, first compound 0.1 µM
[7] = second compound 1 µM, first compound 0.0316 µM
[8] = second compound 1 µM, first compound 0.1 µM
[9] = second compound 3.16 µM, first compound 0.0316 µM
[10] = second compound 3.16 µM, first compound 0.1 µM
[11] = second compound 10 µM, first compound 0.0316 µM
[12] = second compound 10 µM, first compound 0.1 µM
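Note: spheroids exposed to agents for seven days before readout.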

## Cn1ncnc1[C@H]1c2n[nH]c(=O)c3cc(F)cc(c23)N[C@@H]1c1ccc(F)cc1 + CNC(=O)c1ccc(Nc2nc(OC3CCCC3)c3c(-c4ccc5nc(C)oc5c4)c[nH]c3n2)c(OC)c1
Second compound 0.0316 µM
  pIC50: < 7.00
Second compound 0.1 µM
  pIC50: < 7.00
Second compound 0.316 µM
  pIC50: < 7.00
Second compound 1 µM
  pIC50: < 7.00
Second compound 3.16 µM
  pIC50: < 7.00
Second compound 10 µM
  pIC50: < 7.00
Second compound 0.0316 µM, first compound 0.000316 µM
  viability, T/C: 105%
Second compound 0.0316 µM, first compound 0.001 µM
  viability, T/C: 112%
Second compound 0.0316 µM, first compound 0.00316 µM
  viability, T/C: 102%
Second compound 0.0316 µM, first compound 0.01 µM
  viability, T/C: 91.2%
[1]
  viability, T/C: 89.6%
[2]
  viability, T/C: 78.6%
Second compound 0.1 µM, first compound 0.000316 µM
  viability, T/C: 98.8%
Second compound 0.1 µM, first compound 0.001 µM
  viability, T/C: 91%
Second compound 0.1 µM, first compound 0.00316 µM
  viability, T/C: 84.2%
Second compound 0.1 µM, first compound 0.01 µM
  viability, T/C: 89.8%
[3]
  viability, T/C: 74.8%
[4]
  viability, T/C: 83.8%
Second compound 0.316 µM, first compound 0.000316 µM
  viability, T/C: 84.8%
Second compound 0.316 µM, first compound 0.001 µM
  viability, T/C: 75.2%
Second compound 0.316 µM, first compound 0.00316 µM
  viability, T/C: 66.3%
Second compound 0.316 µM, first compound 0.01 µM
  viability, T/C: 68%
[5]
  viability, T/C: 80.9%
[6]
  viability, T/C: 64.7%
Second compound 1 µM, first compound 0.000316 µM
  viability, T/C: 75.8%
Second compound 1 µM, first compound 0.001 µM
  viability, T/C: 65%
Second compound 1 µM, first compound 0.00316 µM
  viability, T/C: 63.7%
Second compound 1 µM, first compound 0.01 µM
  viability, T/C: 52.4%
[7]
  viability, T/C: 52.4%
[8]
  viability, T/C: 54.6%
Second compound 3.16 µM, first compound 0.000316 µM
  viability, T/C: 61.9%
Second compound 3.16 µM, first compound 0.001 µM
  viability, T/C: 73.8%
Second compound 3.16 µM, first compound 0.00316 µM
  viability, T/C: 60.1%
Second compound 3.16 µM, first compound 0.01 µM
  viability, T/C: 54.3%
[9]
  viability, T/C: 53.8%
[10]
  viability, T/C: 52%
Second compound 10 µM, first compound 0.000316 µM
  viability, T/C: 61.8%
Second compound 10 µM, first compound 0.001 µM
  viability, T/C: 59.6%
Second compound 10 µM, first compound 0.00316 µM
  viability, T/C: 55.9%
Second compound 10 µM, first compound 0.01 µM
  viability, T/C: 48.6%
[11]
  viability, T/C: 65%
[12]
  viability, T/C: 71.9%

## Nc1ccn(C2OC(CO)C(O)C2(F)F)c(=O)n1 (centres undefined) + CNC(=O)c1ccc(Nc2nc(OC3CCCC3)c3c(-c4ccc5nc(C)oc5c4)c[nH]c3n2)c(OC)c1
Second compound 0.0316 µM
  pIC50: 6.03
Second compound 0.1 µM
  pIC50: 6.90
Second compound 0.316 µM
  pIC50: 7.07
Second compound 1 µM
  pIC50: 6.92
Second compound 3.16 µM
  pIC50: 6.80
Second compound 10 µM
  pIC50: 7.14
[1]
  viability, T/C: 61.4%
[2]
  viability, T/C: 57.8%
Second compound 0.0316 µM, first compound 0.316 µM
  viability, T/C: 53.7%
Second compound 0.0316 µM, first compound 1 µM
  viability, T/C: 50%
Second compound 0.0316 µM, first compound 3.16 µM
  viability, T/C: 45.3%
Second compound 0.0316 µM, first compound 10 µM
  viability, T/C: 39.6%
[3]
  viability, T/C: 90.4%
[4]
  viability, T/C: 50.8%
Second compound 0.1 µM, first compound 0.316 µM
  viability, T/C: 44.9%
Second compound 0.1 µM, first compound 1 µM
  viability, T/C: 46.1%
Second compound 0.1 µM, first compound 3.16 µM
  viability, T/C: 36.3%
Second compound 0.1 µM, first compound 10 µM
  viability, T/C: 42.1%
[5]
  viability, T/C: 73.8%
[6]
  viability, T/C: 46.7%
Second compound 0.316 µM, first compound 0.316 µM
  viability, T/C: 37.8%
Second compound 0.316 µM, first compound 1 µM
  viability, T/C: 40.6%
Second compound 0.316 µM, first compound 3.16 µM
  viability, T/C: 36%
Second compound 0.316 µM, first compound 10 µM
  viability, T/C: 37.5%
[7]
  viability, T/C: 69.8%
[8]
  viability, T/C: 51.4%
Second compound 1 µM, first compound 0.316 µM
  viability, T/C: 42.8%
Second compound 1 µM, first compound 1 µM
  viability, T/C: 32.2%
Second compound 1 µM, first compound 3.16 µM
  viability, T/C: 39.2%
Second compound 1 µM, first compound 10 µM
  viability, T/C: 43.8%
[9]
  viability, T/C: 55.2%
[10]
  viability, T/C: 60.7%
Second compound 3.16 µM, first compound 0.316 µM
  viability, T/C: 42.1%
Second compound 3.16 µM, first compound 1 µM
  viability, T/C: 40.4%
Second compound 3.16 µM, first compound 3.16 µM
  viability, T/C: 33.7%
Second compound 3.16 µM, first compound 10 µM
  viability, T/C: 34.1%
[11]
  viability, T/C: 67.8%
[12]
  viability, T/C: 42.9%
Second compound 10 µM, first compound 0.316 µM
  viability, T/C: 40.3%
Second compound 10 µM, first compound 1 µM
  viability, T/C: 33.7%
Second compound 10 µM, first compound 3.16 µM
  viability, T/C: 39.2%
Second compound 10 µM, first compound 10 µM
  viability, T/C: 40.6%
